Assay results: patent US5504097A, “N-hydroxyureas as 5-lipoxygenase inhibitors and inhibitors of oxidative modification of low density lipoprotein” (American Home Products Corporation, priority 1995, dated 1996)
Counter-ions that a name gives are not always drawn.

Columns and labels:
[1] = tested on: LT-dependent bronchoconstriction; experiment: Inhibition of Bronchoconstriction in Guinea Pigs Induced by Exogenously Administered Antigen (ovalbumin); type: in vivo, Male guinea pigs; details: Cavia porcellus, iv, 5 min; 10 mg/kg
Protocol: 4. Inhibition of Brochoconstriction in Guinea Pigs Induced by Exogenously Administered Antigen
Male guinea pigs (Charles River, Wilmington, Mass.) were sensitized 3-4 weeks prior to antigen challenge by administration of 2 i.m. injections of ovalbumin, 1 into each hind limb (35 mg total). Sensitized animals (500-600 g) were fasted overnight prior to experimentation. Conscious animals were then dosed p.o. with drug or vehicle alone (0.5% Tween 80 in H2 O) at the indicated times prior to antigen challenge, or anesthetized animals were dosed i.v. with drug or vehicle alone (DMSO) 5 min prior to antigen challenge. Animals were anesthetized by urethane (2.8 g/kg i.p.). A carotid artery and jugular vein were cannulated to allow for the monitoring of blood pressure and the administration of drugs, respectively. The trachea was then cannulated and connected to a Harvard Apparatus rodent ventilator (S. Natick, Mass). Spontaneous respiration was abolished by the administration of succinylcholine (2.5 mg/kg i.v.). The animals were then ventilated with room air at a rate of 65 breaths per min. Airway inflation pressure was measured using a Statham pressure transducer (Gould Instruments, Cleveland, Ohio) connected to the tracheal cannula via a side-arm and recorded on a Grass Instruments recorder (Quincy, Mass). The tidal volume (approximately 10 cc/kg) was adjusted to give a baseline inflation pressure of 8-10 cm H2 O at end inspiration. Animals were then allowed 20 min to stabilize.
Following the stabilization period, animals were given i.v. injections of pyrilamine (5 mg/kg), propranolol (0.1 mg/kg) and indomethacin (10 mg/kg) at 15, 10 and 5 min, respectively, prior to antigen challenge. This pretreatment results in an LT-dependent bronchoconstriction following antigen challenge, which was accomplished by i.v. administration of ovalbumin (10 mg/kg). Only one bronchoconstriction per animal was induced. End-inspiratory inflation pressure (in cm H2 O over baseline) was measured at 5 min post-antigen challenge. A mean value and standard error for the % inhibition of control bronchoconstriction in each drug-treated group was then calculated.

[2] = target: T1, 5-Lipoxygenase (Homo sapiens, UniProt P09917); experiment: Inhibition of 5-Lipoxygenase in Human Whole Blood (LTB4, calcium ionophore A23187); type: cell-based
T1 construct: from tissue; host or cells: whole blood of male human donors (endogenous enzyme of the leukocytes)
T1 sequence (P09917 1-674): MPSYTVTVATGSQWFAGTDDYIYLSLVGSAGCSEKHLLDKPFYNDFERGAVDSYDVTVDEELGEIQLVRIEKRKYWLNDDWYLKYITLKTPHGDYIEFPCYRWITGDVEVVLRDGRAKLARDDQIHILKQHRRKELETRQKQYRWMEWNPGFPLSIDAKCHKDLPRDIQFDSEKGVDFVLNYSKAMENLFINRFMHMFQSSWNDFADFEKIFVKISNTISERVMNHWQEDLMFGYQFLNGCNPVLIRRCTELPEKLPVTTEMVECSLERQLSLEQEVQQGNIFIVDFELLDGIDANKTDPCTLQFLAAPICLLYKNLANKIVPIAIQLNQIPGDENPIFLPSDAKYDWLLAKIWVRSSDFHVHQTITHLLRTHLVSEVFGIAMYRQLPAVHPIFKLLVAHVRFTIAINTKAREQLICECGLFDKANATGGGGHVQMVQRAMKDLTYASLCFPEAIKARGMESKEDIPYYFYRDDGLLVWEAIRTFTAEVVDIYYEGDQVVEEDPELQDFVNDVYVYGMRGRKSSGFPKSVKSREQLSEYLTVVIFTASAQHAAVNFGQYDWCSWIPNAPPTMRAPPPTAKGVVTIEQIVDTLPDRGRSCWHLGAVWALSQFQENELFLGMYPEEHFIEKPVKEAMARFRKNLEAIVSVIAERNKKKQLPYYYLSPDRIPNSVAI
Protocol: 1. Inhibition of 5-Lipoxygenase in Human Whole Blood
Blood is obtained in 50-100 ml quantities from male donors. White blood cell counts and differentials are made. Two ml of blood are placed in a 15 ml polypropylene test tube. Test compounds are solubilized in dimethylsulfoxide and diluted in 1:10 in 10% bovine serum albumin in phosphate buffered saline, pH 7.4 resulting in a final dimethylsulfoxide concentration of 0.1% in the blood. Then, solutions of test compounds are added to the blood in a shaking water bath at 37° C. for 10 minutes prior to the addition of 30 μM calcium ionophore (A23187, Sigma). After ionophore administration, whole blood samples are mixed and incubated for 20 minutes at 37° C. in a shaking water bath. Incubation is terminated by placing samples in an ice bath and immediately adding ethylene glycol-bis-(β-aminoethyl ether)-N, N,N',N'-tetraacetic acid (10 mM). Samples are mixed and centrifuged at 1200× g for 15 minutes at 4° C. Preparation of samples for evaluation by RIA or ELISA is carried out by the following protocol. Plasma is removed from sample tubes, placed in 15 ml polypropylene test tubes containing 8 ml methanol, and then vortexed to precipitate protein. Samples are stored at -70° C. overnight. The next day, samples are centrifuged at 200× g for 15 minutes at 4° C. to pellet the precipitate. Samples are dried in a Savant SpeedVac Concentrator, Model SVC 200H, reconstituted to original volume with ice cold RIA or ELISA buffer, and stored at -70° C. until assayed. The assay for eicosanoids (LTB4, T×B2, and PGE2) is performed as described by the manufacturer of the ^3 H!-RIA kit or ELISA kit (LTB4 -Amersham, T×B2 and PGE2 -Caymen Chemical).
The total eicosanoid level in 2 ml of blood is calculated and reported as ng/10^6 neutrophils. Significance is determined by a one-way analysis of variance with least significant difference (LSD) comparisons to control (p≤0.05) and IC50 's (μM) are determined by regression analysis (Finney, 1978). Drug effects are expressed as percent change from control values.

[3] = tested on: Lipoxygenase; experiment: Ex-Vivo Measurement of Lipoxygenase Inhibition in Orally Dosed Rats (LTB4 in A23187-stimulated blood); parameters: species or system Male Sprague Dawley rats; details: 10 mg/kg, p.o.; pretreatment period 6 hr
Protocol: 2. Ex-Vivo Measurement of Lipoxygenase Inhibition in Orally Dosed Rats
After an interval of 3 or 6 hours, the rats were anesthetized with metofane (n=4/group) and blood collected in heparinized tubes. White blood cell counts and differentials were made. One ml of blood from each animal was placed in a 5 ml plastic tube in a shaker bath at 37° C. A23187 at a final concentration of 10 μM was added to the blood and the blood vortexed and incubated for 15 min at 37° C. with gentle shaking. Incubation was terminated by vortexing sample and centrifuging immediately at 1200× G for 15 min at 4° C. The plasma was transferred to 15 ml plastic tubes each containing 8 ml of methanol to precipitate protein followed by vortexing. The samples were stored at -70° C. overnight and the next day the samples were centrifuged at 800× G for 15 min to pellet the precipitate. The samples were dried in a Savant SpeedVac Concentrator Model SVC 200H and reconstituted to the original volume with cold RIA or ELISA buffer. The reconstituted samples were stored at -70° C. until assayed. The assay for LTB4 was performed according to the directions of the ^3 H!RIA kit or ELISA kit (Seragen). The total metabolite level in 1 ml of blood is calculated and reported as ng/10^6 neutrophils. Significance is determined by a one-way analysis of variance with LSD comparisons to control (p≤0.05).

SMILES	inhibition in vivo at 10 mg/kg [1]	inhibition at 1 µM [2]	inhibition at 10 µM ([2]; 10 μM)	further results
Cc1oc(-c2ccc(OCC(F)(F)F)cc2)nc1COc1ccc(CN(O)C(N)=O)cc1 [Example 7, 1-Hydroxy-1-4-5-methyl-2-(4-trifluoroethoxy-phenyl)-oxazol-4-ylmethoxy!-benzyl!-urea]	24%	74%		
Cc1oc(-c2ccccc2)nc1COc1ccc(C(C)N(O)C(N)=O)cc1 (stereo not shown) [Example 8, 1-Hydroxy-1-1- -4(5-methyl-2-phenyl-oxazol-4-ylmethoxy)-phenyl!-ethyl!-urea]			57%	
NC(=O)N(O)Cc1ccc(OCc2coc(-c3ccc(C(F)(F)F)cc3)n2)cc1 [Example 11, 1-Hydroxy-1-4-2-(4-trifluoromethyl-phenyl)-oxazol-4-ylmethoxy!-benzyl!-urea]		32%		% Inhibition of LTB4 [3]: 68%
NC(=O)N(O)Cc1ccc(OCc2csc(-c3ccc(C(F)(F)F)cc3)n2)cc1 [Example 12, 1-Hydroxy-1-4-2-(4-trifluoromethyl-phenyl)-thiazol-4-yl-methoxy!-benzyl!urea]	30%	56%		
O=C(Nc1ccc(F)cc1)N(O)Cc1ccc(OCc2csc(-c3ccc(C(F)(F)F)cc3)n2)cc1 [Example 13, 3-(4-Fluoro-phenyl)-1-hydroxy-1-4-2-(4-trifluoromethyl-phenyl)-thiazol-4-ylmethoxy!-benzyl!-urea]		38%		
NC(=S)N(O)Cc1ccc(OCc2csc(-c3ccc(Cl)cc3)n2)cc1 [Example 15, 1-Hydroxy-1-4-2-(4-chloro-phenyl)-thiazol-4-ylmethoxy!-benzyl!-thiourea]	21%	57%		
CCCCCCNC(=O)N(O)Cc1ccc(OCc2csc(-c3ccc(Cl)cc3)n2)cc1 [Example 16, 1-4-2-(4-chloro-phenyl)-thiazol-4-ylmethoxy!-benzyl!-3-hexyl-1-hydroxy-urea]			36%	
COc1ccc(-c2nc(COc3ccc(CN(O)C(N)=O)cc3)cs2)cc1 [Example 17, 1-Hydroxy-1-4-2-(4-methoxy-phenyl)-thiazol-4-ylmethoxy!-benzyl!-urea]	50%	56%		% Inhibition of LTB4 [3]: 69%
Cc1oc(-c2ccccc2)nc1COc1ccc(C(O)CN(O)C(N)=O)cc1 (stereo not shown) [Example 18, 1-Hydroxy-1-2-hydroxy-2-4-(5-methyl-2-phenyl-oxazol-4-ylmethoxy)-phenyl!-ethyl!-urea]			86%	
Cc1oc(-c2ccc(C(F)(F)F)cc2)nc1COc1ccc(CN(O)C(=O)NN)cc1 [Example 19, 4-Hydroxy-4-4-5-methyl-2-(4-trifluoromethyl-phenyl)-oxazol-4-ylmethoxy!-benzyl!-semicarbazide]			50%	
CC(C)=NNC(=O)N(O)Cc1ccc(OCc2nc(-c3ccc(C(F)(F)F)cc3)oc2C)cc1 [Example 20, 1-Isopropylidine-4-hydroxy-4-4-5-methyl-2-(4-trifluoromethylphenyl)oxazol-4-ylmethoxy!-benzyl!-semicarbazone]			78%	
NNC(=O)N(O)Cc1ccc(OCc2csc(-c3ccccc3)n2)cc1 [Example 21, 4-Hydroxy-4-4-(2-phenyl-thiazol-4-ylmethoxy)-benzyl!-semicarbazide]			94%	
NNC(=O)N(O)Cc1ccc(OCc2csc(-c3ccccc3)n2)cc1 [Example 22, 4-Hydroxy-4-4-(2-phenyl-thiazol-4-ylmethoxy)-benzyl!-semicarbazide hydrochloride]				% Inhibition of LTB4 ([2]; 10 μM, hydrochloride): 80%
